4 compounds from ChEMBL document CHEMBL1201862, “PubChem BioAssay data set” (2004) can be followed below.

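The compound was tested at five concentrations on cells cultured in 96-well plates, with a 48-hour exposure period. Here, GI50 denotes the concentration required for 50% inhibition of growth.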 Calls of active or inactive are those of the source. Cut-off read from the data, not from the text of the source: active = GI50 up to about 1.1 µM and inactive = higher. Bounds are passed on as bounds.

Some test systems named below: 786-0; HCC 2998; HCT-116; HCT-15; HOP-62; IGROV-1; K562; NCI-H522; OVCAR-3; OVCAR-4; OVCAR-5; SF-268; SF-295; SF-539; SN12C; SNB-75; SNB-78; U-251; UACC-62; MDA-N.
Test in all cases: NCI-60 cell line screen, 48 h

Take `O=C(Nc1nnc(S)[nH]1)C(=O)C(c1cnc2ccc([N+](=O)[O-])cc2n1)[N+](=O)[O-]` (stereo not drawn): the GI50 with 786-0 is > 100 µM (inactive); in the assay on HCC 2998, > 100 µM (inactive); in the assay with HCT-116, > 100 µM (inactive); in the assay with HCT-15 it was 72.9 µM; with HOP-62, > 100 µM (inactive); in the assay with IGROV-1, > 100 µM (inactive). Moreover, the GI50 in the assay with K562 is > 100 µM (inactive); with NCI-H522, 16.2 µM (inactive); in the assay with OVCAR-3, > 100 µM (inactive); with OVCAR-4, > 100 µM (inactive); in the assay on OVCAR-5 it was > 100 µM (inactive); in the assay with SF-268, > 100 µM (inactive). In addition, the GI50 in the assay on SF-295, with SF-539, in the assay on SN12C, with SNB-75, in the assay on SNB-78 and in the assay with U-251 was > 100 µM (inactive) throughout. The GI50 in the assay with UACC-62 is > 100 µM (inactive).
As to `COc1ccc(OC(=O)N2C/C(=C\c3ccccc3)C(=O)/C(=C/c3ccccc3)C2)cc1`, the GI50 with 786-0 was 2.96 µM (inactive); in the assay with HCC 2998 it was 2.9 µM (inactive); with HCT-116, 0.355 µM (active); with HCT-15, 2.79 µM; in the assay on HOP-62 it was 8.15 µM (inactive); in the assay on IGROV-1, 5.6 µM (inactive). The GI50 is 0.824 µM (active) in the assay on K562; 1.76 µM (inactive) in the assay with MDA-N; 2.05 µM (inactive) in the assay with NCI-H522; 6.85 µM (inactive) in the assay with OVCAR-3; 8.17 µM (inactive) with OVCAR-4; 7.64 µM (inactive) in the assay on OVCAR-5. Further, the GI50 in the assay on SF-268 is 3.67 µM (inactive); in the assay with SF-295, 2.99 µM (inactive); in the assay with SF-539 it was 7.82 µM (inactive); in the assay on SN12C, 2.43 µM (inactive); in the assay on SNB-75 it was 7.83 µM (inactive); with SNB-78, 3.43 µM (inactive). Moreover, the figures for the GI50 with U-251 and in the assay with UACC-62 were 2.48 µM (inactive) and 2.16 µM (inactive), respectively.
As for `COc1ccccc1/C=C1\CCC(CN2CCOCC2)C1=O` (stereo not drawn), the GI50 in the assay with 786-0 was 3.02 µM (inactive); in the assay on HCC 2998, 14.9 µM (inactive); in the assay on HCT-116 it was 6.92 µM (inactive); in the assay on HCT-15 it was 4.24 µM; in the assay with HOP-62, 25.5 µM (inactive); in the assay on IGROV-1, 12.5 µM (inactive). Further, the GI50 in the assay on K562 is 2.81 µM (inactive); in the assay on MDA-N it was 13.8 µM (inactive); with NCI-H522, 1.77 µM (inactive); with OVCAR-3, 5.57 µM (inactive); in the assay with OVCAR-4, 16.8 µM (inactive); in the assay on OVCAR-5 it was 18.4 µM (inactive). In addition, the GI50 with SF-268 was 16 µM (inactive); in the assay on SF-295, 19.2 µM (inactive); in the assay on SF-539, 15.2 µM (inactive); in the assay on SN12C it was 7.5 µM (inactive); in the assay with SNB-75 it was 20.2 µM (inactive); in the assay on SNB-78, 20 µM (inactive). Also, the figures for the GI50 with U-251 and in the assay on UACC-62 were 18.7 µM (inactive) and 16.4 µM (inactive), respectively.
As for `CCC(/C(=N/NC(=O)C[N+](C)(C)C)c1ccccc1)C1OC(=O)c2ccccc21` (stereo not drawn), the GI50 in the assay on 786-0 is > 100 µM (inactive); with HCC 2998 it was > 100 µM (inactive); in the assay on HCT-116, > 100 µM (inactive); in the assay on HCT-15, above 100 µM; with HOP-62, > 100 µM (inactive); in the assay on IGROV-1 it was > 100 µM (inactive). Also, the GI50 in the assay on K562, in the assay on NCI-H522, in the assay with OVCAR-3, in the assay on OVCAR-4, in the assay with OVCAR-5 and with SF-268 was > 100 µM (inactive) each time. Also, the GI50 with SF-295, in the assay on SF-539, with SN12C, in the assay with SNB-75, in the assay with SNB-78 and with U-251 was > 100 µM (inactive) each time. For the same compound, the GI50 with UACC-62 was > 100 µM (inactive).
